What all share (experiment): NCI tumour cell line growth inhibition, 48 h
In experiment [1] the test system is A498 renal.
The test system of experiment [2] is HCC-2998 colon.
In experiment [3] the test system is K-562 leukemia.
The subject of experiment [4] is MALME-3M melanoma.
Experiment [5] has as its system NCI-H23 lung.
Experiment [6] concerns PC-3 prostate.
Experiment [7] deals with SK-OV-3 ovarian.
Experiment [8] deals with UACC-62 melanoma.

Among the data in PubChem BioAssay (NCI) are GI50 and TGI values, retold here.

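These data come from cells grown in 96-well plates and exposed to compound for 48 hours at five concentrations. Abbreviation: GI50, concentration required for 50% inhibition of growth. TGI: concentration producing complete growth inhibition.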 Bounds are passed on as bounds.

As to `CC(C)[C@@H](C(=O)O[C@@H]1/C=C/C(=O)O[C@@H](C)CCC/C=C/[C@@H]2C[C@H](O)C[C@H]21)N(C)C`, the GI50 was 2540 nM in experiment [1]; 20 µM in experiment [2]; 20.3 µM in experiment [3]; 3890 nM in experiment [4]; 23.3 µM in experiment [5]; 6.77 µM in experiment [6]. The GI50 in experiment [7] was 23.8 µM; in experiment [8], 21700 nM. For the same compound, the TGI in experiment [1] was 7.97 µM; in experiment [2], 55.1 µM; in experiment [3], 50.7 µM; in experiment [4] it was 22 µM; in experiment [5], 91.8 µM; in experiment [6], 61.6 µM. The TGI in experiment [7] is more than 96 µM; in experiment [8], more than 72.1 µM.
As for `CC(NNC(=S)N1CCN(c2ccccn2)CC1)c1nccc2ccccc12` (configuration not stated), the TGI in experiment [1] was 17.3 µM; in experiment [2], 14.7 µM; in experiment [3], 14.2 µM; in experiment [4] it was 15.5 µM; in experiment [5], 13.7 µM; in experiment [6], 14.9 µM. Besides, the values for the TGI in experiment [7] and in experiment [8] were 15.1 µM and 2.35 µM, respectively.
Consider `Cc1[nH]nc(C(F)(F)F)c1Cc1sc2c(c1C(=O)N1C[C@](C)(O)CO1)c(=O)n(C)c(=O)n2C(C)C`, for which the GI50 in experiment [1] is 47300 nM; in experiment [2] it was more than 100 µM; in experiment [4] it was more than 100000 nM; in experiment [5], more than 100 µM; in experiment [6], more than 100 µM; in experiment [7], more than 100 µM. Moreover, in experiment [8], the GI50 was more than 100000 nM. Moreover, the TGI in experiment [1], in experiment [2], in experiment [3], in experiment [4], in experiment [5] and in experiment [6] was more than 100 µM throughout. Besides, the TGI in experiment [7] and in experiment [8] was more than 100 µM throughout.
Take `CC(=O)C1=C(C)N(Cc2ccccc2)C2(O)C=CC(=O)C3=C(O)c4ccccc4C(=O)C312` (configuration not stated): the GI50 in experiment [1] was 22700 nM; in experiment [2], 13 µM; in experiment [3] it was 8.68 µM; in experiment [4], 1440 nM; in experiment [5], 7.53 µM; in experiment [6] it was 10.3 µM. Besides, the GI50 in experiment [7] was 18.3 µM; in experiment [8], 2640 nM. The TGI in experiment [1] was 38.1 µM; in experiment [2] it was 36.4 µM; in experiment [3] it was more than 100 µM; in experiment [4], 2.97 µM; in experiment [5] it was 24.7 µM; in experiment [6], 31.2 µM. Further, the TGI in experiment [7] is 42.4 µM; in experiment [8], 7.64 µM.
`CC1(C)OCC2OC(n3cnc4c(N)nc(Cl)nc43)C(OS(C)(=O)=O)C2O1` (configuration not stated): the TGI in experiment [1], in experiment [2], in experiment [3], in experiment [4], in experiment [5] and in experiment [6] was more than 100 µM throughout. For the same compound, the TGI in experiment [7] and in experiment [8] was more than 100 µM in each case.
With `Cc1nnc(N/N=C/c2ccc([N+](=O)[O-])o2)[nH]c1=O`, the GI50 in experiment [1] is 756 nM; in experiment [2], 1.14 µM; in experiment [3], 0.796 µM; in experiment [4] it was 970 nM; in experiment [5] it was 1.37 µM; in experiment [6], 0.512 µM. Also, the GI50 is 3.77 µM in experiment [7] and 666 nM in experiment [8]. In addition, the TGI is 14.3 µM in experiment [1]; more than 100 µM in experiment [2]; more than 100 µM in experiment [3]; 4.3 µM in experiment [4]; more than 100 µM in experiment [5]; more than 100 µM in experiment [6]. Further, the figures for the TGI in experiment [7] and in experiment [8] were more than 93.5 µM and 7.75 µM, respectively.
With `CCC(=O)NC1=C(Cl)C(=O)C(NC(=O)CC)=C(Cl)C1=O`, the GI50 was 38200 nM in experiment [1]; 17.4 µM in experiment [2]; 11.8 µM in experiment [3]; 5170 nM in experiment [4]; 18.5 µM in experiment [5]; 8.5 µM in experiment [6]. In addition, the GI50 in experiment [7] was more than 73.1 µM; in experiment [8] it was 29700 nM. The TGI in experiment [1] is more than 72.6 µM; in experiment [2] it was 32.1 µM; in experiment [3] it was more than 27.9 µM; in experiment [4], 10.1 µM; in experiment [5], 40.8 µM; in experiment [6] it was 21 µM. The values for the TGI in experiment [7] and in experiment [8] were more than 100 µM and more than 57.3 µM, respectively.
With `O=C1/C=C/[C@@H](O)[C@@H]2C[C@@H](O)C[C@H]2/C=C/CCC[C@H](CCO)O1`, the GI50 in experiment [1] is 44.2 nM; in experiment [2] it was 0.227 µM; in experiment [3] it was 0.365 µM; in experiment [4], 95.1 nM; in experiment [5] it was 0.227 µM; in experiment [6] it was 0.367 µM. The GI50 in experiment [7] was 0.287 µM; in experiment [8], 186 nM. In addition, the TGI in experiment [1] is 0.274 µM; in experiment [3] it was more than 100 µM; in experiment [4] it was 0.529 µM; in experiment [5] it was 2.3 µM; in experiment [6], more than 100 µM; in experiment [7], more than 100 µM. The same compound returned a TGI in experiment [8] of more than 100 µM.
Take `CN1CCN(Cc2ccc(NC(=O)c3cncc(C#Cc4ccc(N)nc4)c3)cc2C(F)(F)F)CC1`: the GI50 in experiment [1] was 567 nM; in experiment [2], 1.96 µM; in experiment [3] it was 0.005 µM; in experiment [4], 535 nM; in experiment [5] it was 1.3 µM; in experiment [6], 1.58 µM. The GI50 is 0.693 µM in experiment [7] and 945 nM in experiment [8]. The TGI in experiment [1] came out at 1.93 µM; in experiment [2], 6.96 µM; in experiment [3] it was 5.54 µM; in experiment [4], 1.46 µM; in experiment [5], 6.27 µM; in experiment [6], 8.3 µM. Also, the TGI stood at 4.69 µM in experiment [7] and 3.48 µM in experiment [8].
`CCOC(=O)C1=C(Nc2ccc(OC)cc2)C(N)=NC1=N`: the GI50 in experiment [1] was 2710 nM; in experiment [2] it was 3.94 µM; in experiment [3], 3.02 µM; in experiment [4], 7290 nM; in experiment [5] it was 4.84 µM; in experiment [6], 3.26 µM. The GI50 in experiment [7] was 2.99 µM; in experiment [8], 2850 nM. For the same compound, the TGI in experiment [1] is 8.11 µM; in experiment [2], more than 100 µM; in experiment [3], more than 100 µM; in experiment [4], more than 100 µM; in experiment [5] it was more than 100 µM; in experiment [6], more than 100 µM. The TGI in experiment [7] was 18.1 µM; in experiment [8], more than 100 µM.
